Laboratory results as given in PMC12079475, “Identification, validation, and characterization of approved and investigational drugs interfering with the SARS‐CoV‐2 endoribonuclease Nsp15” (Protein Science : A Publication of the Protein Society, 2025).
Where a name gives a salt, the structure may show the parent alone. Read-outs that look alike come from different tables or passages of the source.

What was measured:
[1] = target: T1, SARS‐CoV‐2 Nsp15 (Severe acute respiratory syndrome coronavirus 2, UniProt P0DTD1); assay: biochemical
[2] = target: T1, SARS‐CoV‐2 Nsp15; assay: biochemical; format: biochemical; conditions: for inhibition at 10 µM: read-out: Inhibition % +L-Cys 10 µM; for loss of the inhibition potency in L‐cysteine buffer: 1 mM L‐cysteine buffer compared with DTT buffer
[3] = 1 mM DTT buffer, confidence interval in brackets, read-out: IC50 + DTT (μM) (CI in μM)
[4] = DTT buffer (Table S1), read-out: IC50 +DTT
[5] = hit confirmation, 10 µM, DTT buffer
[6] = primary screen, 10 µM (Table S1)
[7] = primary screen, 10 μM compound, 1 mM DTT buffer, normalized to 50 μM Congo red (100%) and DMSO (0%)
[8] = hit confirmation, 10 µM, DTT buffer, read-out: HC inhibition % +DTT 10 µM
[9] = primary screen, 10 µM (Table S1), read-out: PS Inhibition % 10 µM
[10] = primary screen, 10 μM compound, 1 mM DTT buffer, normalized to 50 μM Congo red (100%) and DMSO (0%), read-out: PS inhibition % 10 μM (single point measurement)
[11] = 1 mM L-cysteine buffer, confidence interval in brackets, read-out: IC50 + L‐Cys (μM) (CI in μM)
[12] = L-cysteine buffer (Table S1), read-out: IC50 +L-Cys

Cc1[nH]c2ccc(F)cc2c1-c1nc2c3cccnc3c3ncccc3c2[nH]1 [APTO‐253]
IC50 [1, 3]: 7.8 µM
IC50 [1, 4]: 7.75 µM
HC inhibition % +DTT 10 µM [1, 5]: 78,02%
PS Inhibition % 10 µM [1, 6]: 61,11%
PS inhibition % 10 μM (single point measurement) [1, 7]: 61.1%
Inhibition % +L-Cys 10 µM ([2]; 10 µM, L-cysteine buffer): 48,13%

CC(C)Nc1cccnc1N1CCN(C(=O)c2cc3cc(NS(C)(=O)=O)ccc3[nH]2)CC1 [Delavirdine (mesylate)]
IC50 [1, 3]: 2.3 µM
IC50 [1, 4]: 2.29 µM
inhibition at 10 µM [1, 8]: 77.3%
inhibition at 10 µM [1, 9]: 80.7%
inhibition at 10 µM [1, 10]: 80.7%
inhibition at 10 µM ([2]; 10 µM, L-cysteine buffer): 27.2%
loss of the inhibition potency in L‐cysteine buffer [2]: more than 50%

COc1cccc2c1C(=O)c1c(O)c3c(c(O)c1C2=O)C[C@@](O)(C(=O)CO)C[C@@H]3O[C@H]1C[C@H](N)[C@H](O)[C@H](C)O1 [Doxorubicin]
IC50 ([1]; IC50 + DTT (μM) (CI in μM)): 3.7 µM
IC50 ([1]; IC50 +DTT (µM)): 3.69 µM
IC50 ([2]; IC50 + L‐Cys (μM) (CI in μM)): 2.3 µM
IC50 ([2]; IC50 +L-Cys (µM)): 2.26 µM

COc1cccc(C=NCCN=Cc2cccc(OC)c2[O-])c1[O-].[Cl-].[Mn+3] [EUK 134]
IC50 [1, 3]: 3.3 µM
IC50 [1, 4]: 3.34 µM
HC inhibition % +DTT 10 µM [1, 5]: 56,68%
PS Inhibition % 10 µM [1, 6]: 70,85%
PS inhibition % 10 μM (single point measurement) [1, 7]: 70.9%
Inhibition % +L-Cys 10 µM ([2]; 10 µM, L-cysteine buffer): 16,41%
loss of the inhibition potency in L‐cysteine buffer [2]: more than 50%

COc1cc2c(cc1OC)CN(CCc1ccc(NC(=O)c3cccc4c(=O)c5cccc(OC)c5[nH]c34)cc1)CC2 [Elacridar]
IC50 [1, 3]: 4.9 µM
IC50 [1, 4]: 4.99 µM
inhibition at 10 µM [1, 8]: 72.7%
inhibition at 10 µM [1, 9]: 68.3%
inhibition at 10 µM [1, 10]: 68.3%
inhibition at 10 µM ([2]; 10 µM, L-cysteine buffer): 15.9%
loss of the inhibition potency in L‐cysteine buffer [2]: more than 50%

COc1cccc2c1C(=O)c1c(O)c3c(c(O)c1C2=O)C[C@@](O)(C(=O)CO)C[C@@H]3O[C@H]1C[C@H](N)[C@@H](O)[C@H](C)O1 [Epirubicin hydrochloride]
IC50 ([1]; IC50 + DTT (μM) (CI in μM)): 3.4 µM
IC50 ([1]; IC50 +DTT (µM)): 3.37 µM
IC50 ([2]; IC50 + L‐Cys (μM) (CI in μM)): 1.5 µM
IC50 ([2]; IC50 +L-Cys (µM)): 1.46 µM

CCOC(=O)CCNc1cc(N2CCc3ccccc3CC2)nc(-c2ccccn2)n1 [GSK J4 HCl]
IC50 [1, 3]: 5.5 µM
IC50 [1, 4]: 5.48 µM
inhibition at 10 µM [1, 8]: 82.2%
inhibition at 10 µM [1, 9]: 75.8%
inhibition at 10 µM [1, 10]: 75.8%
inhibition at 10 µM ([2]; 10 µM, L-cysteine buffer): 77.9%
IC50 [2, 11]: 3.8 µM
IC50 [2, 12]: 3.81 µM

Oc1ccc2ccccc2c1SSc1c(O)ccc2ccccc12 [IPA‐3]
HC inhibition % +DTT 10 µM [1]: 89,23%
PS Inhibition % 10 µM [1]: 86,58%
PS inhibition % 10 μM (single point measurement) [1]: 86.6%
IC50 ([1]; read-out: IC50 + DTT (μM) (CI in μM)): 0.9 µM
IC50 ([1]; read-out: IC50 +DTT): 0.99 µM
Inhibition % +L-Cys 10 µM [2]: 51,34%

O=C1c2c(O)ccc(O)c2C(=O)c2c(NCCNCCO)ccc(NCCNCCO)c21 [Mitoxantrone hydrochloride]
IC50 ([1]; IC50 + DTT (μM) (CI in μM)): 1.5 µM
IC50 ([1]; IC50 +DTT (µM)): 1.47 µM
IC50 ([2]; IC50 + L‐Cys (μM) (CI in μM)): 0.5 µM
IC50 ([2]; IC50 +L-Cys (µM)): 0.47 µM

O=C1C(Cl)=C(NCCN2CCOCC2)C(=O)c2ncccc21 [NSC‐663284]
IC50 [1, 3]: 0.5 µM
IC50 [1, 4]: 0.48 µM
HC inhibition % +DTT 10 µM [1, 5]: 82,57%
PS Inhibition % 10 µM [1, 6]: 85,51%
PS inhibition % 10 μM (single point measurement) [1, 7]: 85.5%
Inhibition % +L-Cys 10 µM ([2]; 10 µM, L-cysteine buffer): 53,53%

COc1cccc2c1C(=O)c1c(O)c3c(c(O)c1C2=O)C[C@@](O)(C(=O)CO)C[C@@H]3O[C@H]1C[C@H](N2CCO[C@H](OC)C2)[C@H](O)[C@H](C)O1 [Nemorubicin]
IC50 [1, 3]: 2.6 µM
IC50 [1, 4]: 2.61 µM
inhibition at 10 µM [1, 8]: 69.2%
inhibition at 10 µM [1, 9]: 65.2%
inhibition at 10 µM [1, 10]: 65.2%
inhibition at 10 µM ([2]; 10 µM, L-cysteine buffer): 69%
IC50 [2, 11]: 1.3 µM

CCCCCCCCN=c1ccn(CCCCCCCCCCn2ccc(=NCCCCCCCC)cc2)cc1 [Octenidine dihydrochloride]
IC50 [1, 3]: 3.8 µM
IC50 [1, 4]: 3.76 µM
inhibition at 10 µM [1, 8]: 92.4%
inhibition at 10 µM [1, 9]: 98.6%
inhibition at 10 µM [1, 10]: 98.6%
inhibition at 10 µM ([2]; 10 µM, L-cysteine buffer): 103%
IC50 [2, 11]: 4.4 µM
IC50 [2, 12]: 4.36 µM

NCCNc1ccc(NCCN)c2c1C(=O)c1ccncc1C2=O [Pixantrone (dimaleate)]
IC50 [1, 3]: 5.2 µM
IC50 [1, 4]: 5.23 µM
inhibition at 10 µM [1, 8]: 77.5%
inhibition at 10 µM [1, 9]: 82.3%
inhibition at 10 µM [1, 10]: 82.3%
inhibition at 10 µM ([2]; 10 µM, L-cysteine buffer): 72.8%
IC50 [2, 11]: 4.4 µM
IC50 [2, 12]: 4.37 µM

C/C(=N\NC(=N)N)c1cc(NC(=O)CCCCCCCCC(=O)Nc2cc(/C(C)=N/NC(=N)N)cc(/C(C)=N/NC(=N)N)c2)cc(/C(C)=N/NC(=N)N)c1 [Semapimod]
IC50 [1, 3]: 0.6 µM
IC50 [1, 4]: 0.61 µM
HC inhibition % +DTT 10 µM [1, 5]: 99,81%
PS Inhibition % 10 µM [1, 6]: 106,91%
PS inhibition % 10 μM (single point measurement) [1, 7]: 106.9%
Inhibition % +L-Cys 10 µM ([2]; 10 µM, L-cysteine buffer): 100,99%
IC50 [2, 11]: 1 µM
IC50 [2, 12]: 1.01 µM

Cc1cc2nc3ccc(N(C)C)cc3[s+]c2cc1N [Tolonium chloride]
IC50 [1, 3]: 1.7 µM
IC50 [1, 4]: 1.65 µM
inhibition at 10 µM [1, 8]: 76.5%
inhibition at 10 µM [1, 9]: 72%
inhibition at 10 µM [1, 10]: 72%
inhibition at 10 µM ([2]; 10 µM, L-cysteine buffer): 77.8%
IC50 [2, 11]: 1.3 µM
IC50 [2, 12]: 1.34 µM

COc1cc2c(NC3CCN(C)CC3)nc(N3CCCN(C)CC3)nc2cc1OCCCN(C)C [UNC0224]
IC50 [1, 3]: 2.6 µM
IC50 [1, 4]: 2.57 µM
inhibition at 10 µM [1, 8]: 73.9%
inhibition at 10 µM [1, 9]: 70.6%
inhibition at 10 µM [1, 10]: 70.6%
inhibition at 10 µM ([2]; 10 µM, L-cysteine buffer): 83.2%
IC50 [2, 11]: 4 µM

COc1cc2c(NC3CCN(C)CC3)nc(N3CCCN(C)CC3)nc2cc1OCCOCCN(C)C [UNC0321]
IC50 [1, 3]: 3.9 µM
IC50 [1, 4]: 3.89 µM
inhibition at 10 µM [1, 8]: 77.6%
inhibition at 10 µM [1, 9]: 64%
inhibition at 10 µM [1, 10]: 63.9%
inhibition at 10 µM ([2]; 10 µM, L-cysteine buffer): 72.9%
IC50 [2, 11]: 3.2 µM
IC50 [2, 12]: 3.21 µM

COc1cc2c(NC3CCN(CC4CCCCC4)CC3)nc(N3CCCN(C(C)C)CC3)nc2cc1OCCCN1CCCCC1 [UNC0631]
IC50 [1, 3]: 2.2 µM
IC50 [1, 4]: 2.21 µM
inhibition at 10 µM [1, 8]: 71.4%
inhibition at 10 µM [1, 9]: 84.8%
inhibition at 10 µM [1, 10]: 84.8%
inhibition at 10 µM ([2]; 10 µM, L-cysteine buffer): 79.3%
IC50 [2, 11]: 2.5 µM
IC50 [2, 12]: 2.54 µM

COc1cc2c(NC3CCN(C(C)C)CC3)nc(C3CCCCC3)nc2cc1OCCCN1CCCC1 [UNC0638]
IC50 [1, 3]: 2.8 µM
IC50 [1, 4]: 2.84 µM
inhibition at 10 µM [1, 8]: 69.5%
inhibition at 10 µM [1, 9]: 56.7%
inhibition at 10 µM [1, 10]: 56.7%
inhibition at 10 µM ([2]; 10 µM, L-cysteine buffer): 69.9%
IC50 [2, 11]: 4.8 µM
IC50 [2, 12]: 4.77 µM

CC1(C)CCC2=C(O1)C(=O)c1ccccc1C2=O [alphaLapachone]
IC50 [1, 3]: 2.2 µM
IC50 [1, 4]: 2.15 µM
inhibition at 10 µM [1, 8]: 82.8%
inhibition at 10 µM [1, 9]: 76%
inhibition at 10 µM [1, 10]: 76%
inhibition at 10 µM ([2]; 10 µM, L-cysteine buffer): 28.6%
loss of the inhibition potency in L‐cysteine buffer [2]: more than 50%

BVT‐948
IC50 [1, 3]: 0.4 µM
IC50 [1, 4]: 0.41 µM
HC inhibition % +DTT 10 µM [1, 5]: 84,54%
PS Inhibition % 10 µM [1, 6]: 72,99%
PS inhibition % 10 μM (single point measurement) [1, 7]: 72.9%
Inhibition % +L-Cys 10 µM ([2]; 10 µM, L-cysteine buffer): -3,98%
loss of the inhibition potency in L‐cysteine buffer [2]: more than 50%
